{"source": "paper PMC9146984", "about": "“A Novel Proline-Rich Cathelicidin from the Alpaca Vicugna pacos with Potency to Combat Antibiotic-Resistant Bacteria: Mechanism of Action and the Functional Role of the C-Terminal Region” (Membranes, 2022)", "key": {"E. coli BW25113 ΔmdtM": {"tested_on": "E. coli BW25113 ΔmdtM", "type": "cell-based, Escherichia coli", "conditions": "Mueller–Hinton broth, 24 h, 37 °C, median", "protocol": "(§1) The reduction of resazurin to resorufin was measured."}, "E. coli BW25113 ΔompF": {"tested_on": "E. coli BW25113 ΔompF", "type": "cell-based, Escherichia coli", "conditions": "Mueller–Hinton broth, 24 h, 37 °C, median", "protocol": "as §1"}, "E. coli BW25113 ΔsbmA": {"tested_on": "E. coli BW25113 ΔsbmA", "type": "cell-based, Escherichia coli", "conditions": "Mueller–Hinton broth, 24 h, 37 °C, median", "protocol": "as §1"}, "E. coli BW25113": {"tested_on": "E. coli BW25113", "type": "cell-based, Escherichia coli", "conditions": "BW25113, 24 h", "protocol": "as §1"}, "E. coli MDR CI 1057": {"tested_on": "E. coli MDR CI 1057", "conditions": "Mueller-Hinton broth supplemented with 0.9% NaCl", "protocol": "(§2) Bacterial test cultures were grown in the Mueller-Hinton broth (MH; Sigma, St. Louis, MO, USA) at 37 °C to mid-log phase and then diluted with the 2× MH medium supplemented with 1.8% NaCl or without salt so that to reach a final cell concentration of 10^6 CFU/mL. 50 µL of the obtained bacterial suspension were added to aliquots of 50 µL of the peptide solutions serially diluted with sterilized 0.1% bovine serum albumin (BSA) in 96-well flat-bottom polystyrene microplates (Eppendorf #0030730011, Hamburg, Germany). […] To verify MIC values, the respiratory activity of the bacteria was determined. Briefly, 20 µL of 0.1 mg/mL resazurin (a redox indicator; Sigma, St. Louis, MO, USA) was added to the wells after 24 h of incubation, and the plate was incubated for an additional two hours. The reduction of resazurin to resorufin was measured. […] The results were expressed as the median values determined based on at least three independent experiments performed in triplicate.\n(§3) Resistance induction experiments were performed using the previously described method. Briefly, on day one, the overnight culture of wild-type bacteria was diluted with the 2× MH broth supplemented with 1.8% NaCl to reach a final cell concentration of 10^6 CFU/mL. 50 µL of the obtained bacterial suspension were added to aliquots of 50 µL of the peptide solutions serially diluted with the sterilized 0.1% BSA in 96-well flat-bottom polystyrene microplates. After incubation for 20 ± 2 h at 37 °C and 950 rpm, MICs were determined as described above. For each subsequent daily transfer, 2–4 μL of the inoculum taken from the first well containing a sub-inhibitory drug concentration were diluted with 2 mL of the fresh 2× MH broth supplemented with 1.8% NaCl. […] 14 repeated passages in the presence of antimicrobial agents were made for each bacterial strain during the experiment. Bacteria that grew at the highest concentration of AMPs on the final day were passaged a further 3 times on drug-free agar plates before determining the final MIC value."}, "[1]": {"tested_on": "VicBac[1–22]-resistant E. coli MDR 1057 strain", "conditions": "Mueller-Hinton broth supplemented with 0.9% NaCl; strain selected 14 days with VicBac[1-22]; cross-resistance", "protocol": "as §2, §3"}, "E. coli MDR 1057": {"tested_on": "E. coli MDR 1057", "conditions": "selection by VicBac[1–22], stable after three passages without peptide", "protocol": "Resistance induction experiments were performed using the previously described method. Briefly, on day one, the overnight culture of wild-type bacteria was diluted with the 2× MH broth supplemented with 1.8% NaCl to reach a final cell concentration of 10^6 CFU/mL. 50 µL of the obtained bacterial suspension were added to aliquots of 50 µL of the peptide solutions serially diluted with the sterilized 0.1% BSA in 96-well flat-bottom polystyrene microplates. After incubation for 20 ± 2 h at 37 °C and 950 rpm, MICs were determined as described above. For each subsequent daily transfer, 2–4 μL of the inoculum taken from the first well containing a sub-inhibitory drug concentration were diluted with 2 mL of the fresh 2× MH broth supplemented with 1.8% NaCl. […] Bacteria that grew at the highest concentration of AMPs on the final day were passaged a further 3 times on drug-free agar plates before determining the final MIC value."}, "[2]": {"tested_on": "human embryonic kidney cells (HEK293T)", "test": "Cytotoxicity (MTT assay)", "type": "cell-based", "protocol": "Hemolytic activity of the peptides was tested against the fresh suspension of human red blood cells (hRBC) using the hemoglobin release assay as described previously. Two experiments were performed with the hRBC from blood samples of independent donors. The quantitative data were represented as average means with standard deviations. The colorimetric 3-(4,5-dimethylthiazol-2-yl)-2,5-diphenyltetrazolium bromide (MTT) dye reduction assay was used to determine the cytotoxicity of the peptides against transformed human embryonic kidney cells (HEK293T). 10^4 cells per well in Dulbecco’s modified Eagle’s medium (DMEM/F12) supplemented with 10% fetal bovine serum (FBS; Invitrogen, Waltham, MA, USA) were placed into 96-well plates and then cultured in the CO2-incubator (5% CO2, 37 °C). After the media were removed, the peptides were dissolved in 100 µL of the same medium and added to cell cultures at different final concentrations. 20 h later, 20 μL of MTT (5 mg/mL; Sigma, St. Louis, MO, USA) was added to each well, and the plates were incubated for 4 h at 37 °C. Then, the media were discarded and a 100 µL dimethyl sulfoxide-isopropanol mixture at a ratio of 1:1 (v/v) was added to each well to dissolve the crystallized formazan. The absorbance at 570 nm was measured by a microplate reader AF2200 (Eppendorf, Hamburg, Germany). The optical density in the wells containing cells cultured without the peptides was assumed to represent 100% cell viability. Two independent experiments were performed for each peptide."}, "[3]": {"tested_on": "BW25113ΔsbmA expressing the control protein sfGFP", "type": "cell-based, Escherichia coli", "conditions": "same promoter J23119", "protocol": "as §1\n(§4) A plasmid vector for the expression of sfGFP under the strong constitutive artificial promoter J23119 [33] was kindly provided by M.N. Baranova (Figure S2A). This plasmid was used for the preparation of the complementation plasmids overexpressing two SbmA variants in the SbmA-deficient E. coli strain. The plasmids were obtained by ligase-independent cloning procedure. Briefly, DNA parts were produced by PCR-amplification of the vector and target sbmA gene from wild-type E. coli MDR 1057 or VicBac[1–22]-resistant strain (Figure S2B). The DNA fragments purified by gel electrophoresis and having 22–23 bp overhangs were mixed with molar ratios of 2:1 (insert: linearized vector) and were subsequently transformed into chemically competent E. coli DH10B cells. Target plasmids were isolated from individual clones and then analyzed by DNA sequencing."}, "[4]": {"tested_on": "BW25113ΔsbmA with plasmid-borne mutant SbmA bearing the tetrapeptide deletion", "type": "cell-based, Escherichia coli", "conditions": "promoter J23119, pUC vector", "protocol": "as §1, §4"}, "[5]": {"tested_on": "BW25113ΔsbmA with plasmid-borne wild-type SbmA", "type": "cell-based, Escherichia coli", "conditions": "promoter J23119, pUC vector", "protocol": "as §1, §4"}}, "note": "Read-outs that look alike come from different tables or passages of the source. Where a SMILES comes first, the peptide text is derived from it."}
{"smiles": "CC[C@H](C)[C@H](NC(=O)[C@H](CCCNC(=N)N)NC(=O)[C@@H]1CCCN1C(=O)[C@@H]1CCCN1C(=O)[C@@H](NC(=O)[C@H](CCCNC(=N)N)NC(=O)[C@@H]1CCCN1C(=O)[C@H](CCCNC(=N)N)NC(=O)[C@@H]1CCCN1C(=O)[C@@H](NC(=O)[C@H](CCCNC(=N)N)NC(=O)[C@@H]1CCCN1C(=O)[C@H](CCCNC(=N)N)NC(=O)[C@@H]1CCCN1C(=O)[C@H](CC(C)C)NC(=O)[C@H](CCCNC(=N)N)NC(=O)[C@@H]1CCCN1C(=O)[C@H](CCCNC(=N)N)NC(=O)[C@H](CCCNC(=N)N)NC(=O)[C@@H](NC(=O)[C@H](CCCNC(=N)N)NC(=O)[C@@H](N)CCCNC(=N)N)[C@@H](C)CC)C(C)C)[C@@H](C)CC)C(=O)O", "note": "[VicBac[1-22]] (H-RRIRRPRLPRPRVPRPRIPPRI-OH)", "values": [{"measurement": "Minimum inhibitory concentration, E. coli strain ΔmdtM", "setting": "E. coli BW25113 ΔmdtM; 0.9% NaCl: +", "value": 2, "unit": "µM"}, {"measurement": "Minimum inhibitory concentration, E. coli strain ΔmdtM", "setting": "E. coli BW25113 ΔmdtM; 0.9% NaCl: −", "value": 4, "unit": "µM"}, {"measurement": "Minimum inhibitory concentration, E. coli strain ΔompF", "setting": "E. coli BW25113 ΔompF; 0.9% NaCl: +", "value": 8, "unit": "µM"}, {"measurement": "Minimum inhibitory concentration, E. coli strain ΔompF", "setting": "E. coli BW25113 ΔompF; 0.9% NaCl: −", "value": 2, "unit": "µM"}, {"measurement": "Minimum inhibitory concentration, E. coli strain ΔsbmA", "setting": "E. coli BW25113 ΔsbmA; 0.9% NaCl: +", "value": 16, "unit": "µM"}, {"measurement": "Minimum inhibitory concentration, E. coli strain ΔsbmA", "setting": "E. coli BW25113 ΔsbmA; 0.9% NaCl: −", "value": 4, "unit": "µM"}, {"measurement": "Minimum inhibitory concentration, E. coli strain BW25113", "setting": "E. coli BW25113", "value": 2, "unit": "µM"}, {"measurement": "Minimum inhibitory concentration E.coli MDR 1057 14 days w/o AMP", "setting": "E. coli MDR CI 1057; after 14 passages without antimicrobial agents", "value": 1, "unit": "µM"}, {"measurement": "Minimum inhibitory concentration E.coli MDR 1057 0 days", "setting": "E. coli MDR CI 1057; before passages", "value": 1, "unit": "µM"}, {"measurement": "Minimum inhibitory concentration E.coli MDR 1057 14 days with VicBac [1-22]", "setting": "[1]", "value": "> 128", "unit": "µM"}, {"measurement": "MIC value after 10 passages subjected to selection", "setting": "E. coli MDR 1057", "value": "> 128", "unit": "µM"}, {"measurement": "moderate cytotoxic activity against human HEK293T cells", "setting": "[2]", "value": "not"}, {"measurement": "MIC, control strain BW25113ΔsbmA expressing sfGFP", "setting": "[3]", "value": 8, "unit": "µM"}, {"measurement": "MIC, BW25113ΔsbmA with plasmid-borne mutant SbmA (tetrapeptide deletion)", "setting": "[4]", "value": 8, "unit": "µM"}, {"measurement": "MIC, BW25113ΔsbmA with plasmid-borne wild-type SbmA", "setting": "[5]", "value": 1, "unit": "µM"}]}
